Experimental data as given in the supplement of paper PMC6335503.
± gives the standard deviation of the averaged measurements.

How the values were obtained:
Experiment in all cases: cell viability, percent of DMSO control (CellTiter-Glo); higher = more viable cells
Settings in all cases: 72 h
[1] = test system: DFTD cell line T1 (06/2887)
Procedure: (§1)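 Eight-point dose titration of 41 screen hits in triplicate wells on four Tasmanian devil DFTD tumour cell lines (T1-T4) and devil fibroblasts, 384-well plates. Viability was read by CellTiter-Glo (ATP) after 72 h at 37 °C. Percent of control per plate: DMSO wells = 100%, positive-control wells = 0%.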

[2] = test system: DFTD cell line T3 (06/0368)
Procedure: as §1

[3] = test system: DFTD cell line T2 (05/2569)
Procedure: as §1

[4] = test system: DFTD cell line T4 (07/0192)
Procedure: as §1

CCOc1cc2ncc(C#N)c(Nc3ccc(OCc4ccccn4)c(Cl)c3)c2cc1NC(=O)/C=C/CN(C)C [Neratinib(HKI-272)]
cell viability [%]
Settings | 0.00617 µM | 0.0185 µM | 0.0556 µM | 0.166667 µM | 0.5 µM | 1.5 µM | 4.5 µM | 13.5 µM
[1] | 97.8 ± 37 | 92.2 ± 15 | 125 ± 37 | 90.5 ± 7.4 | 50.7 ± 4.2 | 29 ± 6.5 | 29.2 ± 19 | 32.5 ± 3.8
[2] | 92 ± 15 | 102 ± 7.7 | 119 ± 39 | 96.1 ± 19 | 92.2 ± 2.9 | 39.8 ± 9.7 | 42.4 ± 10 | 36.5 ± 2.4
[3] | 97 ± 27 | 98 ± 17 | 154 ± 70 | 119 ± 36 | 93.3 ± 38 | 45.2 ± 9.8 | 45.7 ± 18 | 39.1 ± 7.5
[4] | 99.8 ± 14 | 88.3 ± 15 | 114 ± 43 | 93.5 ± 4.8 | 62.4 ± 16 | 22.9 ± 15 | 25.4 ± 14 | 18.8 ± 7.4

C#Cc1cccc(Nc2ncnc3cc(OCCOC)c(OCCOC)cc23)c1 [Erlotinib]
cell viability [%]
Settings | 0.0123 µM | 0.037 µM | 0.111111111 µM | 0.333333 µM | 1 µM | 3 µM | 9 µM | 27 µM
[1] | 108 ± 6.9 | 104 ± 26 | 113 ± 47 | 101 ± 19 | 57.3 ± 2.2 | 35.3 ± 10 | 19.8 ± 4.6 | 17 ± 4.6
[2] | 101 ± 5 | 108 ± 18 | 99.9 ± 13 | 81.5 ± 14 | 68.8 ± 2.5 | 49.3 ± 5.8 | 33.1 ± 6 | 40.5 ± 7.9
[3] | 104 ± 9.1 | 80.4 ± 11 | 102 ± 39 | 89.2 ± 29 | 72.1 ± 5.6 | 46.1 ± 12 | 24.3 ± 3.5 | 34.5 ± 18
[4] | 88.3 ± 27 | 115 ± 10 | 117 ± 37 | 79.3 ± 5.9 | 85.1 ± 12 | 43.3 ± 7.7 | 24.4 ± 7.9 | 22 ± 2.9

C=CC(=O)Nc1cccc(Nc2nc(Nc3ccc(N4CCN(C(C)=O)CC4)cc3OC)ncc2C(F)(F)F)c1 [Rociletinib (CO-1686, AVL-301)]
cell viability [%]
Settings | 0.00617 µM | 0.0185 µM | 0.0556 µM | 0.166667 µM | 0.5 µM | 1.5 µM | 4.5 µM | 13.5 µM
[1] | 121 ± 3 | 114 ± 49 | 113 ± 9.9 | 92.4 ± 24 | 80.6 ± 8.4 | 41.4 ± 18 | 16.9 ± 8.2 | 4.81 ± 0.32
[2] | 127 ± 12 | 113 ± 31 | 94.5 ± 20 | 99.1 ± 9.2 | 101 ± 18 | 58.2 ± 14 | 40.4 ± 8.9 | 17.4 ± 9.4
[3] | 119 ± 8.6 | 108 ± 48 | 108 ± 22 | 104 ± 15 | 86.5 ± 9.8 | 63.1 ± 14 | 33.7 ± 7.7 | 12 ± 3.7
[4] | 116 ± 5.8 | 101 ± 9.1 | 102 ± 31 | 89.6 ± 5.2 | 88.6 ± 5.1 | 56.6 ± 12 | 32.4 ± 13 | 11.9 ± 5

C#Cc1cccc(Nc2ncnc3cc(OCCOC)c(OCCOC)cc23)c1.Cl [Erlotinib hydrochloride]
cell viability [%]
Settings | 0.00617 µM | 0.0185 µM | 0.0556 µM | 0.166667 µM | 0.5 µM | 1.5 µM | 4.5 µM | 13.5 µM
[1] | 138 ± 5.7 | 126 ± 46 | 104 ± 9.6 | 87.3 ± 24 | 86.4 ± 11 | 38.1 ± 7 | 29.1 ± 12 | 14.2 ± 7.3
[2] | 121 ± 14 | 105 ± 44 | 122 ± 3.8 | 93.5 ± 14 | 87.4 ± 18 | 60.8 ± 6.6 | 47.1 ± 9.2 | 30.7 ± 6.2
[3] | 124 ± 8.9 | 142 ± 63 | 118 ± 35 | 90.4 ± 9.4 | 98.83 ± 0.71 | 56.3 ± 16 | 33.7 ± 12 | 18.2 ± 6.4
[4] | 117 ± 6.9 | 114 ± 21 | 119 ± 34 | 99.9 ± 13 | 104 ± 15 | 61.7 ± 7.5 | 47.2 ± 22 | 19.7 ± 6.5

COc1cccc2c1C(=O)c1c(O)c3c(c(O)c1C2=O)C[C@@](O)(C(=O)CO)C[C@@H]3O[C@H]1C[C@H](N)[C@@H](O)[C@H](C)O1.Cl
cell viability [%]
Settings | 0.00617 µM | 0.0185 µM | 0.0556 µM | 0.166667 µM | 0.5 µM | 1.5 µM | 4.5 µM | 13.5 µM
[1] | 127 ± 20 | 96.8 ± 35 | 94.5 ± 5 | 66.7 ± 14 | 60.6 ± 6.7 | -2.32 ± 3.8 | -3.85 ± 4.9 | -11.8 ± 0.8
[2] | 124 ± 11 | 110 ± 44 | 96.2 ± 12 | 81.9 ± 18 | 63.8 ± 6.6 | 19.3 ± 3.4 | 5.78 ± 4.9 | -4.2 ± 4.2
[3] | 116 ± 3.2 | 105 ± 38 | 107 ± 8.6 | 79.4 ± 6.3 | 68.9 ± 3.2 | 22.8 ± 5 | -4.77 ± 4 | -10.2 ± 3.1
[4] | 118 ± 30 | 97.7 ± 28 | 89.8 ± 12 | 67.5 ± 13 | 57.2 ± 10 | -4.01 ± 4.5 | -5.27 ± 1.6 | -4.94 ± 4.3

CNC(=O)CN1CCC(Oc2cc3c(Nc4cccc(Cl)c4F)ncnc3cc2OC)CC1 [AZD8931 (Sapitinib)]
cell viability [%]
Settings | 0.00617 µM | 0.0185 µM | 0.0556 µM | 0.166667 µM | 0.5 µM | 1.5 µM | 4.5 µM | 13.5 µM
[1] | 116 ± 38 | 104 ± 20 | 84 ± 28 | 37.9 ± 12 | 24.9 ± 7.9 | 22.8 ± 14 | 19.1 ± 16 | 21.6 ± 6.3
[2] | 112 ± 38 | 95.2 ± 19 | 102 ± 44 | 55.9 ± 17 | 43.4 ± 17 | 29 ± 7.6 | 24.9 ± 10 | 32.6 ± 2.4
[3] | 123 ± 62 | 111 ± 22 | 98.5 ± 55 | 62.1 ± 16 | 46.5 ± 18 | 27 ± 13 | 19.7 ± 17 | 24.2 ± 2.2
[4] | 107 ± 17 | 111 ± 31 | 80.8 ± 34 | 59.7 ± 10 | 31.9 ± 5 | 20.9 ± 16 | 14 ± 10 | 8.86 ± 12

C=CC(=O)Nc1cc(Nc2ncc(Cl)c(-c3c[nH]c4ccccc34)n2)c(OC)cc1N(C)CCN(C)C [Mutant EGFR inhibitor]
cell viability [%]
Settings | 0.00617 µM | 0.0185 µM | 0.0556 µM | 0.166667 µM | 0.5 µM | 1.5 µM | 4.5 µM | 13.5 µM
[1] | 94.7 ± 15 | 83.8 ± 16 | 62.6 ± 41 | 29.1 ± 1.2 | 26.6 ± 1.8 | 9.39 ± 10 | 1.63 ± 5.5 | 7.99 ± 6.1
[2] | 87 ± 18 | 93 ± 18 | 86.5 ± 38 | 39.6 ± 1.6 | 38.2 ± 4.8 | 22 ± 11 | 12.8 ± 3.7 | 26.6 ± 4.2
[3] | 98.2 ± 20 | 93.9 ± 23 | 94.8 ± 32 | 50.8 ± 10 | 37.3 ± 3.5 | 16.6 ± 10 | 5.63 ± 3.1 | 11.5 ± 1.4
[4] | 75.6 ± 22 | 86.8 ± 26 | 89 ± 42 | 35.9 ± 5.8 | 20.9 ± 7 | 6.23 ± 8.1 | 3.77 ± 2.2 | 19.9 ± 7.9

COc1cccc2c1C(=O)c1c(O)c3c(c(O)c1C2=O)C[C@@](O)(C(=O)CO)C[C@@H]3O[C@H]1C[C@H](N)[C@H](O)[C@H](C)O1.Cl
cell viability [%]
Settings | 0.00617 µM | 0.0185 µM | 0.0556 µM | 0.166667 µM | 0.5 µM | 1.5 µM | 4.5 µM | 13.5 µM
[1] | 106 ± 19 | 112 ± 28 | 94.2 ± 8.7 | 95.5 ± 18 | 61.2 ± 8.2 | 32.2 ± 2.5 | 1.1 ± 6.5 | -3.65 ± 5
[2] | 101 ± 18 | 102 ± 5.6 | 97.9 ± 17 | 95.8 ± 19 | 60.3 ± 11 | 45 ± 4.4 | 1.01 ± 0.94 | 2.64 ± 8.3
[3] | 118 ± 33 | 107 ± 14 | 90.9 ± 19 | 97.9 ± 18 | 60.3 ± 14 | 33.7 ± 8.7 | -0.292 ± 4.4 | -2.07 ± 4.8
[4] | 110 ± 16 | 98 ± 4.9 | 89.9 ± 30 | 91.9 ± 4.3 | 43.8 ± 15 | 24.2 ± 7 | -1.02 ± 1.8 | 1.84 ± 5.4

C=CC(=O)N1CCC[C@@H](n2nc(-c3ccc(Oc4ccccc4)cc3)c3c(N)ncnc32)C1
cell viability [%]
Settings | 0.00617 µM | 0.0185 µM | 0.0556 µM | 0.166667 µM | 0.5 µM | 1.5 µM | 4.5 µM | 13.5 µM
[1] | 112 ± 37 | 123 ± 32 | 71.6 ± 14 | 37.3 ± 6.5 | 26.6 ± 4.3 | 23.2 ± 11 | 28.6 ± 13 | 14 ± 10
[2] | 120 ± 38 | 94.2 ± 29 | 95.2 ± 22 | 65.1 ± 9.7 | 38.9 ± 6.9 | 36.7 ± 11 | 34.5 ± 8.3 | 24.5 ± 11
[3] | 103 ± 33 | 124 ± 36 | 83.4 ± 14 | 51.2 ± 12 | 32.3 ± 1.1 | 29.5 ± 6.4 | 30 ± 9.6 | 17.3 ± 12
[4] | 114 ± 25 | 85 ± 27 | 79.7 ± 14 | 51.3 ± 9.8 | 22.6 ± 4.5 | 20.4 ± 12 | 21.4 ± 8.5 | 12.3 ± 8.3

CC#CC(=O)Nc1ccc2ncnc(Nc3cccc(Br)c3)c2c1
cell viability [%]
Settings | 0.00617 µM | 0.0185 µM | 0.0556 µM | 0.166667 µM | 0.5 µM | 1.5 µM | 4.5 µM | 13.5 µM
[1] | 94 ± 1.7 | 95.5 ± 10 | 79.5 ± 27 | 63.3 ± 5.6 | 40.9 ± 1.1 | 21.1 ± 9.7 | 14.8 ± 1.1 | 12.3 ± 6.3
[2] | 95.8 ± 5.2 | 105 ± 20 | 108 ± 30 | 76.6 ± 10 | 65.5 ± 12 | 38.7 ± 7 | 28.4 ± 4.2 | 18.3 ± 9.3
[3] | 99.6 ± 5.3 | 85 ± 13 | 101 ± 18 | 84 ± 5.7 | 84.5 ± 1 | 44.6 ± 5.5 | 30.3 ± 8.2 | 33.4 ± 7.6
[4] | 81.6 ± 19 | 98.5 ± 10 | 106 ± 20 | 73.9 ± 11 | 50.7 ± 1.8 | 22.7 ± 13 | 13.5 ± 5.1 | 4.04 ± 10

Cc1cc(Nc2ncnc3ccc(NC4=NC(C)(C)CO4)cc23)ccc1Oc1ccn2ncnc2c1 [Irbinitinib(ARRY-380; ONT-380)]
cell viability [%]
Settings | 0.00617 µM | 0.0185 µM | 0.0556 µM | 0.166667 µM | 0.5 µM | 1.5 µM | 4.5 µM | 13.5 µM
[1] | 113 ± 14 | 111 ± 4.5 | 94.9 ± 27 | 89.7 ± 20 | 41.5 ± 14 | 30.3 ± 8.6 | 33 ± 14 | 33.4 ± 1.7
[2] | 112 ± 5.4 | 116 ± 13 | 111 ± 14 | 98.9 ± 19 | 67.1 ± 12 | 54.9 ± 8.6 | 45.3 ± 7.3 | 48.6 ± 9.9
[3] | 102 ± 24 | 90.6 ± 12 | 98.1 ± 10 | 95.7 ± 9.6 | 65.7 ± 19 | 45.7 ± 14 | 50.6 ± 22 | 42.5 ± 2.8
[4] | 106 ± 7.2 | 109 ± 16 | 105 ± 17 | 92.6 ± 7.2 | 60.1 ± 7 | 46.2 ± 3.3 | 43.5 ± 9.6 | 36.6 ± 9.5
